US6087334A, “Anti-diabetic peptides” (Amylin Pharmaceuticals, Inc., priority 1998, dated 2000)
Where two headings read alike, the source gives them in different places. Where no end group is shown, it is not given here.

Key:
[1] = in vivo in rats, rabbits and humans with Paget's disease; cited from earlier work
[2] = tested on: gastric emptying in conscious rats; conditions: for Inhibition of gastric emptying (in words): conscious rat model
From the text: Peptide compounds of the present invention may be evaluated for amylin agonist activity using the methods of measuring the rate of gastric emptying disclosed in, for example, Young et al., Diabetologia, 38(6):642-648 (1995). In a phenol red method, which is described in Example D below, conscious rats receive by gavage an a caloric gel containing methyl cellulose and a phenol red indicator. Twenty minutes after gavage, animals are anesthetized using halothane, the stomach exposed and clamped at the pyloric and lower esophageal sphincters, removed and opened into an alkaline solution. Stomach content may be derived from the intensity of the phenol red in the alkaline solution, measured by absorbance at a wavelength of 560 nm. In a tritiated glucose method, conscious rats are gavaged with tritiated glucose in water. The rats are gently restrained by the tail, the tip of which is anesthetized using lidocaine. Tritium in the plasma separated from tail blood is collected at various timepoints and detected in a beta counter. Test compounds are normally administered about one minute before gavage.
Phenol Red Gastric Emptying Assay:
Gastric emptying was measured using a modification (Plourde et al., Life Sci. 53:857-862 (1993)) of the original method of Scarpignato et al. (Arch. Int. Pharmacodyn. Ther. 246:286-295 (1980)). Conscious rats received by gavage. 1.5 mL of an a caloric gel containing 1.5% methyl cellulose (M-0262, Sigma Chemical Co., St. Louis, Mo.) and 0.05% phenol red indicator. Twenty minutes after gavage, rats were anesthetized using 5% halothane, the stomach exposed and clamped at the pyloric and lower esophageal sphincters using artery forceps, removed and opened into an alkaline solution which was made up to a fixed volume. Stomach content was derived from the intensity of the phenol red in the alkaline solution, measured by absorbance at a wavelength of 560 nm. […] In other experiments, particulate gastric contents were centrifuged to clear the solution for absorbance measurements. Where the diluted gastric contents remained turbid, the spectroscopic absorbance due to phenol red was derived as the difference between that present in alkaline versus acidified dilutent.
In separate experiments on 7 rats, the stomach and small intestine were both excised and opened into an alkaline solution. […] Percent gastric emptying contents remaining=(absorbance at 20 min)/(absorbance at 0 min). For those compounds for which ED50 data is presented, dose response curves for gastric emptying were fitted to a 4-parameter logistic model using a least-squares iterative routine (ALLFIT, v2.7, NIH, Bethesda, Md.) to derive ED50 s. Because ED50 is log-normally distributed, it is expressed ± standard error of the logarithm. Pairwise comparisons were performed using one-way analysis of variance and the Student-Newman-Keuls multiple comparisons test (Instat v2.0, GraphPad Software, San Diego, Calif.) using P<0.05 as the level of significance.
As a reference point for dose response studies, rat amylin (Bachem, Torrance, Calif.) dissolved in 0.15M saline, was administered as a 0.1 mL subcutaneous bolus in doses of 0, 0.01, 0.1, 1, 10 or 100 μg 5 minutes before gavage in Harlan Sprague Dawley (non-diabetic) rats fasted 20 hours and diabetic BB rats fasted 6 hours.

## amylin (KCNTATCATQRLANFLVHSSNNFGAILSSTNVGSNTY-NH2; not fully specified (bridges); cysteine pairing not given here; UniProt P10997 34-70, looked up)
[1]
  Lowering of plasma calcium: up to 20%
[2]; dose response
  Inhibition of gastric emptying (in words): dose-dependently inhibit gastric emptying

## Adrenomedullin (YRQSMNNFQGLRSFGCRFGTCTVQKLAHQIYQFTDKDKDNVAPRSKISPQGY; ends and bridges not checked; cysteine pairing not given here; UniProt P35318 95-146, looked up)
[2]; highest doses (100 μg)
  Inhibition of gastric emptying (in words): does not inhibit gastric emptying

## salmon calcitonin
[2]; dose response
  Inhibition of gastric emptying (in words): dose-dependently inhibit gastric emptying

## rat amylin
[2]; dose response
  Inhibition of gastric emptying (in words): dose-dependent suppression of gastric emptying
[2]; diabetic BB rats fasted 6 hours, subcutaneous bolus 5 minutes before gavage
  ED50 for inhibition of gastric emptying: 2.2 µg
[2]; diabetic rats, 10 μg subcutaneous
  Suppression of gastric emptying: complete
[2]; inhibition of gastric emptying, conscious rats, phenol red, 20 min after gavage
  Example D ED50: 0.26 µg
[2]; normal HSD rats, 1 μg subcutaneous
  Suppression of gastric emptying: complete

## rat calcitonin (CGNLSTCMLGTYTQDLNKFHTFPQTSIGVGAP; ends and bridges not checked; cysteine pairing not given here; UniProt P01257 85-116, looked up)
[2]; dose response
  Inhibition of gastric emptying (in words): dose-dependently inhibit gastric emptying
